System: T.b. brucei (strain 427) bloodstream form parasites
Assay: T.b. brucei single concentration screen (10 μM)
Settings: Trypanosoma brucei, read-out: T.b.brucei % viability (10 µM)

SMILES | viability at 10 µM [%]
C[C@H](C(N)=O)N1CCCC[C@@H]1c1ccc(OCc2cccc(F)c2)cc1 [MMV676270, C[C@@H](N1CCCC[C@@H]1c2ccc(OCc3cccc(F)c3)cc2)C(=O)N] | 97
Cc1cnc(CCNC(=O)c2cc(-c3ccc(Cl)cc3)cs2)[nH]1 [MMV676350, Cc1cnc(CCNC(=O)c2cc(cs2)c3ccc(Cl)cc3)[nH]1] | 47
Nc1ncc(Br)cc1-c1nc2cc(Cl)cnc2[nH]1 [MMV676358, Nc1ncc(Br)cc1c2nc3cc(Cl)cnc3[nH]2] | 98
Brc1c(-c2ccc3c(c2)OCO3)nc2ncccn12 [MMV676377, Brc1c(nc2ncccn12)c3ccc4OCOc4c3] | 96
COc1cccc(OCC(=O)c2ccc(Br)cc2)c1 [MMV676379, COc1cccc(OCC(=O)c2ccc(Br)cc2)c1] | 104
CC(=O)Nc1ccc(NC(=O)c2cc(-c3cc(Cl)ccc3O)[nH]n2)cc1 [MMV676380, CC(=O)Nc1ccc(NC(=O)c2cc([nH]n2)c3cc(Cl)ccc3O)cc1] | 78
Cn1ncc2c(N3CCOCC3)nc(NCCc3c[nH]c4ccccc34)nc21 [MMV676382, Cn1ncc2c(nc(NCCc3c[nH]c4ccccc34)nc12)N1CCOCC1] | 93
CCC(Sc1nc2ccccc2o1)C(=O)Nc1nccs1 (stereo not shown) [MMV676383, CCC(Sc1oc2ccccc2n1)C(=O)Nc3nccs3] | 86
N#Cc1nc(-c2ccccc2F)oc1NCCc1ccccc1 [MMV676384, Fc1ccccc1c2oc(NCCc3ccccc3)c(n2)C#N] | 107
Cc1cccc(Cn2ccc(NC(=O)c3ccc4c(c3)OCO4)n2)c1 [MMV676386, Cc1cccc(Cn2ccc(NC(=O)c3ccc4OCOc4c3)n2)c1] | 95
COc1cccc(-n2nnnc2S(=O)(=O)Cc2ccccc2)c1 [MMV676388, COc1cccc(c1)n2nnnc2S(=O)(=O)Cc3ccccc3] | 87
O=C(c1[nH]nc2c1CCCC2)N1CCN(Cc2ccc3c(c2)OCO3)CC1 [MMV676389, O=C(N1CCN(Cc2ccc3OCOc3c2)CC1)c4[nH]nc5CCCCc45] | 95
O=C(Nc1cccnc1)c1c(O)c2cccc3c2n(c1=O)CC3 [MMV676395, OC1=C(C(=O)Nc2cccnc2)C(=O)N3CCc4cccc1c34] | 106
CCS(=O)(=O)N(Cc1ccco1)Cc1cc2ccc(C)cc2nc1O [MMV676398, CCS(=O)(=O)N(Cc1occc1)Cc2cc3ccc(C)cc3nc2O] | 86
c1coc(CNc2nc(N3CCCCC3)nc3ccccc23)c1 [MMV676401, C(Nc1nc(nc2ccccc12)N3CCCCC3)c4occc4] | 58
CC(C)n1ncc2c(C(=O)NCC(c3cccs3)N3CCOCC3)cc(-c3ccccc3)nc21 (stereo not shown) [MMV676406, CC(C)n1ncc2c(cc(nc12)c3ccccc3)C(=O)NCC(N4CCOCC4)c5cccs5] | 61
N#Cc1nc(-c2ccccc2)oc1S(=O)(=O)c1ccc(Cl)cc1 [MMV676412, Clc1ccc(cc1)S(=O)(=O)c2oc(nc2C#N)c3ccccc3] | 28
Cc1ccc(NC(=O)CC2COc3ccccc3O2)cc1Cl (stereo not shown) [MMV676431, Cc1ccc(NC(=O)CC2COc3ccccc3O2)cc1Cl] | 77
Cc1ccc2nc(Cl)c(CNCc3cccs3)cc2c1 [MMV676439, Cc1ccc2nc(Cl)c(CNCc3cccs3)cc2c1] | 99
CC(C)c1ncc(-c2ccncc2)c([C@H]2CC[C@H](CNC(=O)c3cccnc3)CC2)n1 [MMV676442, CC(C)c1ncc(c2ccncc2)c(n1)[C@@H]3CC[C@@H](CNC(=O)c4cccnc4)CC3] | 103

SMILES | viability at 10 µM [%]
O=C(NC1CCCCC1)N1CCN(Cc2ccc3c(c2)OCO3)CC1 [MMV676444, O=C(NC1CCCCC1)N2CCN(Cc3ccc4OCOc4c3)CC2] | 109
CCCn1c(CNc2ccccc2O)nc2ccccc21 [MMV676445, CCCn1c(CNc2ccccc2O)nc3ccccc13] | 109
CCc1nc2ccccc2n1CC(O)COc1cc(C)ccc1Cl (stereo not shown) [MMV676449, CCc1nc2ccccc2n1CC(O)COc3cc(C)ccc3Cl] | 83
CCOC(=O)c1cc(-c2csc(Nc3c(C)cc(C)cc3C)n2)on1 [MMV676461, CCOC(=O)c1cc(on1)c2csc(Nc3c(C)cc(C)cc3C)n2] | 102
CCOc1ccc(OCC(=O)Nc2cc(C)cc(C)c2)cc1 [MMV676470, CCOc1ccc(OCC(=O)Nc2cc(C)cc(C)c2)cc1] | 75
COc1cccc(OC)c1C(=O)Nc1ccc(Cl)c(-c2nc3ccccc3s2)c1 [MMV676472, COc1cccc(OC)c1C(=O)Nc2ccc(Cl)c(c2)c3nc4ccccc4s3] | 100
COc1ccccc1OCCCCn1c(C2CC2)nc2ccccc21 [MMV676474, COc1ccccc1OCCCCn2c(nc3ccccc23)C4CC4] | 93
Cc1cc(C)cc(COc2ccc3c(C)c(CCC(=O)O)c(=O)oc3c2C)c1 [MMV676476, CC1=C(CCC(=O)O)C(=O)Oc2c(C)c(OCc3cc(C)cc(C)c3)ccc12] | 94
COC(=O)c1c(NC(=O)c2cc3ccccc3oc2=O)sc2c1CCN(Cc1ccccc1)C2 [MMV676480, COC(=O)c1c2CCN(Cc3ccccc3)Cc2sc1NC(=O)C4=Cc5ccccc5OC4=O] | 101
O=C(Nc1nnc(S)s1)c1cc(Br)ccc1Cl [MMV676492, Sc1nnc(NC(=O)c2cc(Br)ccc2Cl)s1] | 106
O=C(Nc1nnc(-c2ccc(Cl)s2)o1)c1ccc(Cl)s1 [MMV676501, Clc1ccc(s1)C(=O)Nc2oc(nn2)c3ccc(Cl)s3] | 93
Cc1ccc2oc(-c3cc(NC(=O)Cc4ccccc4)ccc3Cl)nc2c1 [MMV676509, Cc1ccc2oc(nc2c1)c3cc(NC(=O)Cc4ccccc4)ccc3Cl] | 99
O=C(c1cc2ccccc2o1)N1CCN(Cc2ccc3c(c2)OCO3)CC1 [MMV676520, O=C(N1CCN(Cc2ccc3OCOc3c2)CC1)c4oc5ccccc5c4] | 97
Nc1cccnc1Nc1ccc(Cl)cc1 [MMV676524, Nc1cccnc1Nc2ccc(Cl)cc2] | 110
COc1ccc(-c2cc(NC(=O)c3ccc(F)cc3Cl)ccc2OC)cc1 [MMV676526, COc1ccc(cc1)c2cc(NC(=O)c3ccc(F)cc3Cl)ccc2OC] | 93
Cc1cccc(NC(=O)c2cc(S(=O)(=O)N(C)c3ccc(F)cc3)ccc2Cl)n1 [MMV676528, CN(c1ccc(F)cc1)S(=O)(=O)c2ccc(Cl)c(c2)C(=O)Nc3cccc(C)n3] | 96
COCC(C)NC(=O)CSc1ncnc2sc(-c3ccccc3)cc12 (stereo not shown) [MMV676536, COCC(C)NC(=O)CSc1ncnc2sc(cc12)-c1ccccc1] | 97
O=C(NCCc1c[nH]c2ccccc12)c1cc2ccccc2oc1=O [MMV676539, O=C(NCCc1c[nH]c2ccccc12)C3=Cc4ccccc4OC3=O] | 83
COc1ccc(Nc2ccccc2NC(=O)c2ccc(O)nc2)cc1 [MMV676554, COc1ccc(Nc2ccccc2NC(=O)c3ccc(O)nc3)cc1] | 115
Cc1nnc(NCc2cccc(Cl)c2)c2ccccc12 [MMV676555, Cc1nnc(NCc2cccc(Cl)c2)c3ccccc13] | 97

SMILES | viability at 10 µM [%]
CC1=NN(c2nc3ccccc3s2)C(=O)C1Cc1cccc2ccccc12 (stereo not shown) [MMV676558, CC1=NN(C(=O)C1Cc2cccc3ccccc23)c4nc5ccccc5s4] | 45
COc1ccc(-c2nc(-c3cccc(NC(=O)Cc4ccc(F)cc4)c3)no2)cc1OC [MMV676571, COc1ccc(cc1OC)c2onc(n2)c3cccc(NC(=O)Cc4ccc(F)cc4)c3] | 53
O=C(NC1=NCCS1)c1sc2cc(F)ccc2c1Cl [MMV676584, Fc1ccc2c(Cl)c(sc2c1)C(=O)NC3=NCCS3] | 82
Nc1c2c(nc3sc4c(c13)CCCC4)CCCC2 [MMV676588, Nc1c2CCCCc2nc3sc4CCCCc4c13] | 99
O=C(CCC1CCCCC1)Nc1cccc(-c2nnc(-c3ccco3)o2)c1 [MMV676589, O=C(CCC1CCCCC1)Nc2cccc(c2)c3oc(nn3)c4occc4] | 95
CCCn1nnc(NC(=O)COc2ccc(C3CCCCC3)cc2)n1 [MMV676597, CCCn1nnc(NC(=O)COc2ccc(cc2)C3CCCCC3)n1] | 71
CC(C)(C)n1nc(Cc2cccc3ccccc23)c2c(N)ncnc21 [MMV676599, CC(C)(C)n1nc(Cc2cccc3ccccc23)c4c(N)ncnc14] | 87
CC1COC2(CCN(c3nc(=O)c4cc(C(F)(F)F)cc([N+](=O)[O-])c4s3)CC2)O1 (stereo not shown) [MMV676603, CC1COC2(CCN(CC2)C3=NC(=O)c4cc(cc(c4S3)[N+](=O)[O-])C(F)(F)F)O1] | 82
C[C@]1(O)C[C@@H](c2nc(-c3ccc4ccc(-c5ccccc5)nc4c3)c3c(N)nccn32)C1 [MMV676605, C[C@@]1(O)C[C@@H](C1)c2nc(c3ccc4ccc(nc4c3)c5ccccc5)c6c(N)nccn26] | 67
O=C(c1ccc(NCCO)cc1)C1C[C@H]1c1ccc(Cl)cc1 (stereo partly shown) [MMV676877, OCCNc1ccc(cc1)C(=O)C2C[C@H]2c3ccc(Cl)cc3] | 102
CCn1cnc2c(Nc3cc(F)cc(F)c3)nc(C#N)nc21 [MMV676881, CCn1cnc2c(Nc3cc(F)cc(F)c3)nc(nc12)C#N] | 70
NC(=O)c1cc(-c2ccsc2)ccc1OCCOc1ccccc1 [MMV687138, NC(=O)c1cc(ccc1OCCOc2ccccc2)c3ccsc3] | 104
CCCCS(=O)(=O)Nc1ccc2cnn(C)c2c1 [MMV687145, CCCCS(=O)(=O)Nc1ccc2cnn(C)c2c1] | 95
Cc1cc(C)c2cc(C(=O)NC3CCCCCCC3)[nH]c2c1 [MMV687146, Cc1cc(C)c2cc([nH]c2c1)C(=O)NC3CCCCCCC3] | 92
COc1ccc(Cn2cnc3c(-c4ccco4)nc(Cl)nc32)cc1 [MMV687170, COc1ccc(Cn2cnc3c(nc(Cl)nc23)c4occc4)cc1] | 97
O=C(C1CCN(c2cc(-n3cccc3)ncn2)CC1)N1CCc2ccccc2C1 [MMV687172, O=C(C1CCN(CC1)c2cc(ncn2)n3cccc3)N4CCc5ccccc5C4] | 93
CCc1ccc([C@@H]2C[C@H](C(F)(F)F)n3ncc(C(=O)NCc4ccc(OC)cc4)c3N2)cc1 [MMV687180, CCc1ccc(cc1)[C@@H]2C[C@@H](n3ncc(C(=O)NCc4ccc(OC)cc4)c3N2)C(F)(F)F] | 57
COc1ccc2nc(C)cc(OCC(=O)Nc3ccccc3OC)c2c1 [MMV687188, COc1ccc2nc(C)cc(OCC(=O)Nc3ccccc3OC)c2c1] | 92

From publication PMC6301270 (MedChemComm, 2018)
